Measurements taken from article PMC11457037 (Journal of medicinal chemistry, 2023).

These compounds were tested on EV-D68 US/MO/14-18947 (assay: CPE assay with EV-D68 US/MO/14-18947 in R.D. cells). Conditions: Enterovirus D, EVD68, RD, read-out: Antiviral EC50.
Assay type: cell-based, Enterovirus D68

SMILES | EC50
CCC[C@H](NC(=O)[C@@H]1[C@H]2CCC[C@H]2CN1C(=O)[C@@H](NC(=O)CC1CCCC1)C(C)(C)C)C(=O)C(=O)NC1CC1 [Jun971, (1S,3aR,6aS)-2-((S)-2-(2-cyclopentylacetamido)-3,3-dimethylbutanoyl)-N-((S)-1-(cyclopropylamino)-1,2-dioxohexan-3-yl)octahydrocyclopenta[c]pyrrole-1-carboxamide] | 160 to 750 nM

The compounds below were run against T1, EV-D68 2A^pro (Enterovirus D68, UniProt A0A097BW19) (assay: FRET-based enzymatic assay). Conditions: not given.
Assay type: biochemical

SMILES | enzymatic inhibition, comparison in words
CCC[C@H](NC(=O)[C@@H]1[C@H]2CCC[C@H]2CN1C(=O)[C@@H](NC(=O)OCc1ccccc1)C(C)(C)C)C(=O)C(=O)NC1CC1 [Jun7426, Benzyl ((S)-1-((1S,3aR,6aS)-1-(((S)-1-(cyclopropylamino)-1,2-dioxohexan-3-yl)carbamoyl)hexahydrocyclopenta[c]pyrrol-2(1H)-yl)-3,3-dimethyl-1-oxobutan-2-yl)carbamate] | reduced enzymatic inhibition and antiviral activity compared to telaprevir
CC(C)(C)[C@H](NC(=O)CC12CC3CC(CC(C3)C1)C2)C(=O)N1C[C@@H]2CCC[C@@H]2[C@H]1C(=O)N[C@@H](Cc1ccc(F)cc1)C(=O)C(=O)NC1CC1 [Jun11763, (1S,3aR,6aS)-2-((S)-2-(2-((3S,5S,7S)-adamantan-1-yl)acetamido)-3,3-dimethylbutanoyl)-N-((S)-4-(cyclopropylamino)-1-(4-fluorophenyl)-3,4-dioxobutan-2-yl)octahydrocyclo-penta[c]pyrrole-1-carboxamide] | comparable enzymatic inhibition and antiviral activity as Jun11385
CC(C)(C)[C@H](NC(=O)CC12CC3CC(CC(C3)C1)C2)C(=O)N1C[C@@H]2CCC[C@@H]2[C@H]1C(=O)N[C@H](C(=O)C(=O)NC1CC1)c1ccccc1 [Jun11817, (1S,3aR,6aS)-2-((S)-2-(2-((3S,5S,7S)-adamantan-1-yl)acetamido)-3,3-dimethylbutanoyl)-N-((S)-3-(cyclopropylamino)-2,3-dioxo-1-phenylpropyl)octahydrocyclopenta[c]pyrrole-1-carboxamide] | less active
CCC[C@H](NC(=O)[C@@H]1[C@H]2CCC[C@H]2CN1C(=O)[C@@H](NC(=O)Cc1ccccc1)C(C)(C)C)C(=O)C(=O)NC1CC1 [Jun8681, (1S,3aR,6aS)-N-((S)-1-(cyclopropylamino)-1,2-dioxohexan-3-yl)-2-((S)-3,3-dimethyl-2-(2-phenylacetamido)butanoyl)octahydrocyclopenta[c]pyrrole-1-carboxamide] | reduced enzymatic inhibition and antiviral activity compared to telaprevir
CC(C)(C)[C@H](NC(=O)CC12CC3CC(CC(C3)C1)C2)C(=O)N1C[C@@H]2CCC[C@@H]2[C@H]1C(=O)NC1(C(=O)C(=O)NC2CC2)CCC1 [Jun11806, (1S,3aR,6aS)-2-((S)-2-(2-((3S,5S,7S)-adamantan-1-yl)acetamido)-3,3-dimethylbutanoyl)-N-(1-(2-(cyclopropylamino)-2 oxoacetyl)cyclobutyl)octahydrocyclopenta[c]pyrrole-1-carboxamide] | less active compared to Jun11762
CCC[C@H](NC(=O)[C@@H]1[C@H]2CCC[C@H]2CN1C(=O)[C@@H](NC(=O)/C=C/c1ccccc1)C(C)(C)C)C(=O)C(=O)NC1CC1 [Jun8813, (1S,3aR,6aS)-2-((S)-2-cinnamamido-3,3-dimethylbutanoyl)-N-((S)-1-(cyclopropylamino)-1,2-dioxohexan-3-yl)octahydrocyclopenta[c]pyrrole-1-carboxamide] | reduced enzymatic inhibition and antiviral activity compared to telaprevir
CC(C)(C)[C@H](NC(=O)CC12CC3CC(CC(C3)C1)C2)C(=O)N1C[C@@H]2CCC[C@@H]2[C@H]1C(=O)N[C@H](C(=O)C(=O)NC1CC1)c1ccc(F)cc1 [Jun11861, (1S,3aR,6aS)-2-((S)-2-(2-((3S,5S,7S)-adamantan-1-yl)acetamido)-3,3-dimethylbutanoyl)-N-((S)-3-(cyclopropylamino)-1-(4-fluorophenyl)-2,3-dioxopropyl)octahydrocyclopenta[c]pyrrole-1-carboxamide] | less active
CC(C)[C@H](NC(=O)[C@@H]1[C@H]2CCC[C@H]2CN1C(=O)[C@@H](NC(=O)CC12CC3CC(CC(C3)C1)C2)C(C)(C)C)C(=O)C(=O)NC1CC1 [Jun11718, (1S,3aR,6aS)-2-((S)-2-(2-((3S,5S,7S)-adamantan-1-yl)acetamido)-3,3-dimethylbutanoyl)-N-((S)-1-(cyclopropylamino)-4-methyl-1,2-dioxopentan-3-yl)octahydrocyclopenta[c]pyrrole-1-carboxamide] | comparable enzymatic inhibition and antiviral activity as Jun8861
CC(C)(C)[C@H](NC(=O)CC12CC3CC(CC(C3)C1)C2)C(=O)N1C[C@@H]2CCC[C@@H]2[C@H]1C(=O)N[C@@H](Cc1c[nH]c2ccccc12)C(=O)C(=O)NC1CC1 [Jun11862, (1S,3aR,6aS)-2-((S)-2-(2-((3S,5S,7S)-adamantan-1-yl)acetamido)-3,3-dimethylbutanoyl)-N-((S)-4-(cyclopropylamino)-1-(1H-indol-3-yl)-3,4-dioxobutan-2-yl)octahydrocyclopenta[c]pyrrole-1-carboxamide] | comparable enzymatic inhibition and antiviral activity as Jun11385
CC(C)(C)[C@H](NC(=O)CC12CC3CC(CC(C3)C1)C2)C(=O)N1C[C@@H]2CCC[C@@H]2[C@H]1C(=O)N[C@H](C(=O)C(=O)NC1CC1)C1CCCC1 [Jun11808, (1S,3aR,6aS)-2-((S)-2-(2-((3S,5S,7S)-adamantan-1-yl)acetamido)-3,3-dimethylbutanoyl)-N-((S)-1-cyclopentyl-3-(cyclopropylamino)-2,3-dioxopropyl)octahydrocyclopenta[c]pyrrole-1-carboxamide] | comparable enzymatic inhibition and antiviral activity as Jun8861
CC(C)(C)[C@H](NC(=O)CC12CC3CC(CC(C3)C1)C2)C(=O)N1C[C@@H]2CCC[C@@H]2[C@H]1C(=O)NC1(C(=O)C(=O)NC2CC2)CCCCC1 [Jun11805, (1S,3aR,6aS)-2-((S)-2-(2-((3S,5S,7S)-adamantan-1-yl)acetamido)-3,3-dimethylbutanoyl)-N-(1-(2-(cyclopropylamino)-2-oxoacetyl)cyclohexyl)octahydrocyclopenta[c]pyrrole-1-carboxamide] | less active compared to Jun11762
CCC[C@H](NC(=O)[C@@H]1[C@H]2CCC[C@H]2CN1C(=O)[C@@H](NC(=O)NC12CC3CC(CC(C3)C1)C2)C(C)(C)C)C(=O)C(=O)NC1CC1 [Jun1023, (1S)-2-((S)-2-(3-((3R,5R,7R)-adamantan-1-yl)ureido)-3,3-dimethylbutanoyl)-N-((S)-1-(cyclopropylamino)-1,2-dioxohexan-3-yl)octahydrocyclopenta[c]pyrrole-1-carboxamide] | reduced enzymatic inhibition

What follows are compounds tested against T1, EV-D68 2A^pro (assay: Enzyme kinetic studies). Conditions: from fitting of kinetic curves.
Assay type: biochemical

SMILES | Mode of inhibition of EV-D68 2A^pro
CC(C)(C)[C@H](NC(=O)CC12CC3CC(CC(C3)C1)C2)C(=O)N1C[C@@H]2CCC[C@@H]2[C@H]1C(=O)N[C@H](C=O)Cc1ccc(F)cc1 [Jun11707, (1S,3aR,6aS)-2-((S)-2-(2-((3S,5S,7S)-adamantan-1-yl)acetamido)-3,3-dimethylbutanoyl)-N-((S)-1-(4-fluorophenyl)-3-oxopropan-2-yl)octahydrocyclopenta[c]pyrrole-1-carboxamide] | reversible binding
CC(C)(C)[C@H](NC(=O)CC12CC3CC(CC(C3)C1)C2)C(=O)N1C[C@@H]2CCC[C@@H]2[C@H]1C(=O)N[C@H](C(=O)C(=O)NC1CC1)C1CCCC1 [Jun11808, (1S,3aR,6aS)-2-((S)-2-(2-((3S,5S,7S)-adamantan-1-yl)acetamido)-3,3-dimethylbutanoyl)-N-((S)-1-cyclopentyl-3-(cyclopropylamino)-2,3-dioxopropyl)octahydrocyclopenta[c]pyrrole-1-carboxamide] | reversible binding
